Experimental data published in PMC8892522 (Proceedings of the National Academy of Sciences of the …, 2022).

Columns and labels:
[1] = target: T1, soluble epoxide hydrolase (sEH) (Homo sapiens, UniProt P34913); assay: cocrystal structure; assay type: binding
T1 sequence (P34913 230-555): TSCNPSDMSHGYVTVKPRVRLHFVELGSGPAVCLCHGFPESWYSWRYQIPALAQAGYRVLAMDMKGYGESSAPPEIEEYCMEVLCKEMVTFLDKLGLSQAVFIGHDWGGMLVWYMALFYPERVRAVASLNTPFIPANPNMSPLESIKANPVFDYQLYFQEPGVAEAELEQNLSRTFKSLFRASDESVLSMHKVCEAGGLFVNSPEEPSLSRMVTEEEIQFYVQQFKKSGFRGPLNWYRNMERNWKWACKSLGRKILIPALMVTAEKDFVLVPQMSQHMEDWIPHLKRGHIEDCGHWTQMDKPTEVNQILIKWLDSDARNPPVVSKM

[2] = target: T2, soluble epoxide hydrolase (sEH) (Mus musculus, UniProt P34914); assay: fluorescent substrate; assay type: biochemical
T2 sequence (P34914 1-554): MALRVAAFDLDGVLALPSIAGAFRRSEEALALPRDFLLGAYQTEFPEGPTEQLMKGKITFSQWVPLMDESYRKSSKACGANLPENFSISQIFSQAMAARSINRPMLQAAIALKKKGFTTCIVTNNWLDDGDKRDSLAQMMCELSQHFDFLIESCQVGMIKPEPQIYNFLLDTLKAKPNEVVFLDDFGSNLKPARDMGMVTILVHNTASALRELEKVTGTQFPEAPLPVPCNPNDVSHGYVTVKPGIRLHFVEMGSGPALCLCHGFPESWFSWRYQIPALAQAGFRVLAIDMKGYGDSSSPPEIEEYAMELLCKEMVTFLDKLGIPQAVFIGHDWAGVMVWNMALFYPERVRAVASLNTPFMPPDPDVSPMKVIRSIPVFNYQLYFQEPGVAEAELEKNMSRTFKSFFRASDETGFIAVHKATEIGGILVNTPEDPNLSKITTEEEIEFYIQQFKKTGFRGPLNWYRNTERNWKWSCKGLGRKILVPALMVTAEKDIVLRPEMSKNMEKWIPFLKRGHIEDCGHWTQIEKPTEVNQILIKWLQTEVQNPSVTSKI

## C=C(C)[C@H](CC=C(C)C)Cc1c(O)cc(OC)c2c1O[C@H](c1ccc(O)cc1O)CC2=O [kurarinone]
[1]
  Kd: 1450 nM
[2]
  IC50: 420 nM
